Like-named read-outs stand apart in the source and are kept apart here. One block for each molecule: values may come before it.
Experiments:
[1] = target: T1, Cyp21 enzyme (Human HEK 293-Cyp21 stable transfected cells) (Homo sapiens, UniProt P08686); experiment: CYP21-HEK293 enzymatic assay (% inhibition at 100 nM) (Biological Example 10); type: cell-based; settings: HEK 293-Cyp21 cells
T1 construct: expressed in transfected cells
T1 sequence (P08686 1-495): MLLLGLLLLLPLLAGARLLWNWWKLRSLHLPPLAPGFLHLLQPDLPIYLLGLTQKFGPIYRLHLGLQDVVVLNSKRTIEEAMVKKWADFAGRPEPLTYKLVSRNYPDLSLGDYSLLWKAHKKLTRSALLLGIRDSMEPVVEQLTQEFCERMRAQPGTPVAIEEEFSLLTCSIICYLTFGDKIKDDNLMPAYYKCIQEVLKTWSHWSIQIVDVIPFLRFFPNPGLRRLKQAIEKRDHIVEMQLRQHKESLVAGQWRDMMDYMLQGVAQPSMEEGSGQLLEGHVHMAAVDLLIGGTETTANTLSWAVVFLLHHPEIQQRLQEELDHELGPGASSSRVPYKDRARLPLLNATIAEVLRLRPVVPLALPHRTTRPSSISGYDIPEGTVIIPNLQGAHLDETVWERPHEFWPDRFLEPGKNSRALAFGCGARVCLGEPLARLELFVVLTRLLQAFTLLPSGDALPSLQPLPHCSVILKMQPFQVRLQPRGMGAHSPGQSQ
Procedure: Proceeding using methods similar to those described in Biological Example 11, the percent inhibition at 100 nM was measured.
This assay was used to determine compound activity against Cyp21 enzyme. Human HEK 293-Cyp21 stable transfected cells (maintained in complete growth media DMEM+10% FBS, supplemented with 125 ug/mL Hygromycin) were seeded in a 96-well plate at 20,000 cells/well/100 uL in DMEM plus 10% FBS and allowed to attach overnight. The next day, 20 μL medium was carefully removed and 10 μL of 10× pre-made compounds in DMEM+10% FBS+10% methanol was transferred to the wells to final concentrations of 1000, 100, 10, 1, or 0.1 nM. Mock treatment was 1% methanol in growth media and the cells were left at 37° C., 5% CO2 for 5 hr. After the incubation, 10 μL of substrate progesterone (Sigma) was added to the wells to make a final concentration of 10 μM. The cells were incubated the cells at 37° C. for 20 hr. At the end of incubation, 90 μL of conditioned media was removed to measure DOC level by ELISA.
Preparation of the DOC ELISA: 100 μL of coating buffer (0.025M PBS pH 7.4) containing 200 ng/mL DOC-3-carboxymethyloxime-BSA (Steraloids. inc, Cat#3469-000) was added to each well of a 96-well plate and incubated overnight at 4° C. The next day, the plates were washed twice with 250 μl of wash solution (0.015M PBS pH 7.4 containing 0.05% Tween 20). After being washed, the wells were blocked with 250 μL blocking buffer (3% BSA in 0.025M PBS, pH 7.4) at 37° C. for 2 h. The plates were washed again 3 times as before, and then 90 μL of sample /standards (prepared in complete growth media) was added into the appropriate wells followed by 10 μL of antibody solution (1:450 rabbit anti-DOC in 0.6% BSA/PBS). The plates were incubated at room temperature for 2 h on a shaker. The contents of the wells were removed and the plate was washed 4 times. After the final wash, 100 μL of secondary antibody (1:12000 HRP-goat-anti-rabbit IgG conjugate 0.6% BSA/PBS) was added into each well. The plate was incubated at 30° C. for 45 min. The plate was washed again 4 times and 100 μL of TMB substrate solution was added to each well. The plate was incubated at room temperature for 10 min. 100 μL of stop solution was added to each well and the optical density was read at 450 nm.
The mean absorbance value for each sample was used to determine the corresponding concentration from the standard curve. Data was analyzed with “log(antagonist) vs response variable slope” under “non-linear regression analysis” using Prism5 software.

[2] = target: T2, CYP17 (human testicular microsome) (Homo sapiens, UniProt P05093); experiment: CYP17 enzymatic assay (% inhibition at 1 nM) (Biological Example 12); type: biochemical
T2 construct: using microsomal fraction from human testis (Celsis Cat #S00110) as the enzyme source; tissue Celsis S00110; host or cells: human testis microsomal fraction
T2 sequence (P05093 1-508): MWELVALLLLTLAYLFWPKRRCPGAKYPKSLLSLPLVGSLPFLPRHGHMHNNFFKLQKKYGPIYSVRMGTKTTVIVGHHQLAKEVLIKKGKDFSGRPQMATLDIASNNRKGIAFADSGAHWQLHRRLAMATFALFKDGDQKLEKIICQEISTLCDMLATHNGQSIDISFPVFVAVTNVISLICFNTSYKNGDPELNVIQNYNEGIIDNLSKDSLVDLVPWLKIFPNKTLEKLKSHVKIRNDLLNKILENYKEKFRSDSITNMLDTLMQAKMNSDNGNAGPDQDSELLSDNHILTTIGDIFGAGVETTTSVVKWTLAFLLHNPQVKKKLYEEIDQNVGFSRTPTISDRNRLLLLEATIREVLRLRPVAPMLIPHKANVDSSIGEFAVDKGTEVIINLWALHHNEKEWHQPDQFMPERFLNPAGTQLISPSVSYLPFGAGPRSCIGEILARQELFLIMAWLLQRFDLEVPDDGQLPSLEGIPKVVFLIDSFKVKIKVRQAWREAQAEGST

[3] = target: T3, CYP17 (H295R cells) (Homo sapiens, UniProt P05093); experiment: CYP17 cellular assay (IC50), testosterone in H295R cells (Biological Example 7); type: cell-based; settings: H295R cells, testosterone by ELISA, 24 hours; read-out: Biological Example No. 7: CYP17 cellular assay IC50
T3 construct: endogenous in cells; host or cells: H295R cells
T3 sequence (P05093 1-508): T2 sequence (P05093 1-508)
Outline: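 H295R cells cultured 24 h, then exposed to compound at 100, 10, 1, 0.1 nM final in serum-free DMEM/F-12 with ITS+ and 0.1% methanol for 24 h at 37 °C. Medium testosterone measured by ELISA and plotted against compound concentration.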

[4] = tested on: rat Cyp11B enzyme (rat adrenal mitochondria); experiment: CYP11B enzymatic assay (% inhibition at 100 nM) (Biological Example 9); type: biochemical; settings: 100 nM compound, cortisol by ELISA
Procedure: Adrenals excised from Sprague Dawley rats were homogenized, and mitochondria fraction were prepared by a series of centrifugation as described in Shuji Ohno, et al. J. of Steroid Biochemistry & Molecular Biology 2002, 80, 355-363. Prepared mitochondria protein was washed and resuspended in Buffer B (0.21 M mannitol, 70 mM sucrose, 5 mM MgCl2, 0.5 mM CaCl2, 20 mM Tris-HCl (pH 7.4) and 1 mM DTT, […]). The protein concentration was determined by BCA assay and stored as 10 μL aliquots at −80° C.
The rat Cyp11B enzyme assay was performed in 96-well plates. Typical assays were carried out in total 50 μL volume that included test compounds at 100 nM concentration, 1× Buffer B, 0.5 mM NADPH, 0.1 μM 11-deoxycortisol, and 2 μL of prepared rat adrenal mitochondria (added last). Reaction without test compound served as positive control and reaction without NADPH served as negative control. Reactions were allowed to incubate at 37° C. for 60 min with gentle shaking. The reaction was stopped by directly applying the enzymatic reaction mixture (1:5 diluted in ELISA assay buffer) to ELISA plate for evaluation of cortisol concentration according to manufacturer's protocol (Assay Design).
The mean absorbance value for each sample was used to determine the corresponding concentration from the standard curve. Amount of cortisol in the negative control (reaction that dis not include NADPH) was subtracted from total cortisol. Percent inhibition (inhibition %) of the compound was calculated using normalized cortisol concentration based on following formula: 100−([Cortisol] of compound/[Cortisol] of positive control *100).

[5] = target: T2, CYP17 (human testicular microsome); experiment: CYP17 enzymatic assay (IC50) (Biological Example 4); type: biochemical; settings: human testicular microsome
[6] = target: T2, CYP17 (human testicular microsome); experiment: CYP17 enzymatic assay (% inhibition at 10 nM), version 1 (Biological Example 5); type: biochemical
[7] = Human liver microsome stability assay (Biological Example 8b); settings: liver microsomes, pH 7.4
[8] = 100 nM compound, read-out: Biological Example No. 10: CYP21-HEK293 percent inhibition at 100 nM
[9] = 1 nM compound, DHEA by ELISA, read-out: Biological Example No. 12: CYP17 percent inhibition at 1 nM
[10] = DHEA by ELISA, read-out: Biological Example No. 4: CYP17 enzymatic assay IC50
[11] = 10 nM compound, DHEA by ELISA, read-out: Biological Example No. 5: CYP17 percent inhibition at 10 nM (version 1)
[12] = compound at 100 nM, read-out: CYP21-HEK293 enzymatic assay % inhibition at 100 nM (Biological Example No. 10)
[13] = compound at 1 nM, read-out: CYP17 enzymatic assay % inhibition at 1 nM (Biological Example No. 12)
[14] = compound at 100 nM, read-out: Biological Example No. 10: CYP21-HEK293 enzymatic assay % inhibition at 100 nM
[15] = read-out: Biological Example No. 4: CYP17 enzymatic assay IC50

SMILES: C[C@]12CCC(=O)C=C1CCC1C2CC[C@]2(C)C(c3cccnc3)=CCC12 (stereo partly drawn) [B, (10R,13S)-10,13-dimethyl-17-(pyridin-3-yl)-6,7,8,9,10,11,12,13,14,15-decahydro-1H-cyclopenta[a]phenanthren-3(2H)-one, reference compound]
- inhibition at 0.1 µM [1, 8]: ≥ 30%
- inhibition at 0.001 µM [2, 9]: > 50%

SMILES: C[C@]12CC[C@H](O)CC1=CC[C@@H]1[C@@H]2CC[C@]2(C)C(c3cccnc3)=CC[C@@H]12 [C, (3S,8R,9S,10R,13S,14S)-10,13-dimethyl-17-(pyridin-3-yl)-2,3,4,7,8,9,10,11,12,13,14,15-dodecahydro-1H-cyclopenta[a]phenanthren-3-ol, reference compound]
- IC50 [3]: < 15 nM
- Biological Example No. 9: CYP11B percent inhibition at 100 nM [4]: T (T means the compound had a percent inhibition of less than 32% when tested at 100 nM)
- inhibition at 0.001 µM [2, 9]: > 50%
- IC50 [5, 10]: < 11 nM
- inhibition at 0.01 µM [6, 11]: > 80%
- half-life at 1 μM [7]: 1 to 50 min

SMILES: COc1cncc(C2=CC=C3[C@@H]4CCC5=CC(=O)NCC[C@]5(C)[C@H]4CC[C@]23C)c1 [Compound 86, (5aR,7aS)-8-(5-methoxypyridin-3-yl)-5a,7a-dimethyl-4,5,5a,5b,6,7,7a,10b,11,12-decahydrocyclopenta[5,6]naphtho[2,1-c]azepin-3(2H)-one]
- inhibition at 0.1 µM [1, 8]: ≥ 30%
- IC50 [5, 10]: < 11 nM
- inhibition at 0.01 µM [6, 11]: 50 to 80%

SMILES: CN1CC[C@@]2(C)C(=CC1=O)CC[C@H]1C3=CC=C(c4cnccn4)[C@@]3(C)CC[C@@H]12 [Compound 184, (5aR,7aS)-3,5a,7a-trimethyl-8-(pyrazin-2-yl)-3,4,5,5a,5b,6,7,7a,11,12-decahydrocyclopenta[5,6]naphtho[1,2-d]azepin-2(10bH)-one]
- inhibition at 0.1 µM [1, 12]: ≥ 30%
- inhibition at 0.001 µM [2, 13]: 10 to 50%
- IC50 ([5]; read-out: CYP17 enzymatic assay IC50 (Biological Example No. 4)): < 11 nM
- inhibition at 0.01 µM ([6]; compound at 10 nM, read-out: CYP17 enzymatic assay % inhibition at 10 nM (Biological Example No. 5)): > 80%

SMILES: CC1CC2C3=CC=C(c4cncc(N)c4)[C@@]3(C)CCC2[C@@]2(C)CCC(=O)C=C12 (stereo partly drawn) [Compound 329, (10R,13S)-17-(5-aminopyridin-3-yl)-6,10,13-trimethyl-6,7,8,9,10,11,12,13-octahydro-1H-cyclopenta[a]phenanthren-3(2H)-one]
- inhibition at 0.1 µM [1, 14]: < 30%
- IC50 [5, 15]: < 11 nM

SMILES: C[C@]12CCC3C(CCC4=CC(=O)CC[C@@]43C)C1=CC=C2c1cncc(N)c1 (stereo partly drawn) [Compound 360, (10R,13S)-17-(5-aminopyridin-3-yl)-10,13-dimethyl-6,7,8,9,10,11,12,13-octahydro-1H-cyclopenta[a]phenanthren-3(2H)-one]
- inhibition at 0.1 µM [1, 14]: < 30%
- IC50 [5, 15]: < 11 nM

SMILES: C[C@]12CCC(=O)C=C1CC[C@@H]1[C@@H]2CC[C@]2(C)C(c3cccnc3)CC[C@@H]12 (stereo partly drawn) [Compound 419, (10R,13S)-10,13-dimethyl-17-(pyridin-3-yl)-6,7,8,9,10,11,12,13,14,15,16,17-dodecahydro-1H-cyclopenta[a]phenanthren-3(2H)-one]
- inhibition at 0.1 µM [1, 12]: ≥ 30%
- inhibition at 0.001 µM [2, 13]: 10 to 50%

Results, then the molecule that gave them:

- inhibition at 0.1 µM [1, 8]: < 30%
- IC50 [5, 10]: < 11 nM
- inhibition at 0.01 µM [6, 11]: 50 to 80%
SMILES: Cc1cncc(C2=CC[C@H]3[C@@H]4CCC5=CC(=O)N(C)CC[C@]5(C)[C@H]4CC[C@]23C)c1 [Compound 54]

- inhibition at 0.1 µM [1, 8]: ≥ 30%
- inhibition at 0.01 µM [6, 11]: 50 to 80%
SMILES: CCc1cncc(C2=CC[C@H]3[C@@H]4CCC5=CC(=O)N(C)CC[C@]5(C)[C@H]4CC[C@]23C)c1 [Compound 145]

- inhibition at 0.1 µM [1, 8]: < 30%
- inhibition at 0.01 µM [6, 11]: 50 to 80%
SMILES: Cc1cncc(C2=CC=C3[C@@H]4CCC5=CC(=O)N(C)CC[C@]5(C)[C@H]4CC[C@]23C)c1 [Compound 160]
